Source: patent publication US9920038B2, “Methyl oxazole orexin receptor antagonists” (MERCK SHARP & DOHME CORP., priority 2014, dated 2018)
Where two headings read alike, the source gives them in different places.

Assays:
human orexin-2 receptor = human orexin-2 receptor (Homo sapiens (Human), UniProt O43614); experiment: hOX2R FLIPR Ca2+ flux assay; type: cell-based; settings: CHO cells expressing human orexin-2 receptor; agonist 70 pM Ala-6,12 orexin-A
Protocol: In a typical experiment the OX1 and OX2 receptor antagonistic activity of the compounds of the present invention was determined in accordance with the following experimental method. For intracellular calcium measurements, Chinese hamster ovary (CHO) cells expressing the rat orexin-1 receptor or the human orexin-2 receptor, are grown in Iscove's modified DMEM containing 2 mM L-glutamine, […], 1% hypoxanthine-thymidine supplement, 100 U/ml penicillin, 100 μg/ml streptomycin and 10% heat-inactivated fetal calf serum (FCS). The cells are seeded at 20,000 cells/well into Becton-Dickinson black 384-well clear bottom sterile plates coated with poly-D-lysine. All reagents were from GIBCO-Invitrogen Corp. The seeded plates are incubated overnight at 37° C. and 5% CO2. Ala-6,12 human orexin-A as the agonist is prepared as a 1 mM stock solution in 1% bovine serum albumin (BSA) and diluted in assay buffer (HBSS containing 20 mM HEPES, 0.1% BSA and 2.5 mM probenecid, pH7.4) for use in the assay at a final concentration of 70 pM. Test compounds are prepared as 10 mM stock solution in DMSO, then diluted in 384-well plates, first in DMSO, then assay buffer. On the day of the assay, cells are washed 3 times with 100 μl assay buffer and then incubated for 60 min (37° C., 5% CO2) in 60 μl assay buffer containing […] Fluo-4AM ester, 0.02% pluronic acid, and 1% BSA. The dye loading solution is then aspirated and cells are washed 3 times with 100 μl assay buffer. 30 μl of that same buffer is left in each well. Within the Fluorescent Imaging Plate Reader (FLIPR, Molecular Devices), test compounds are added to the plate in a volume of 25 μl, incubated for 5 min and finally 25 μl of agonist is added. Fluorescence is measured for each well at 1 second intervals for 5 minutes and the height of each fluorescence peak is compared to the height of the fluorescence peak induced by 70 pM Ala-6,12 orexin-A with buffer in place of antagonist. For each antagonist, IC50 value (the concentration of compound needed to inhibit 50% of the agonist response) is determined. Alternatively, compound potency can be assessed by a radioligand binding assay (described in Bergman et. al. Bioorg. Med. Chem. Lett. 2008, 18, 1425-1430) in which the inhibition constant (Ki) is determined in membranes prepared from CHO cells expressing either the OX1 or OX2 receptor. The intrinsic orexin receptor antagonist activity of a compound which may be used in the present invention may be determined by these assays.

hOX1R = hOX1R (Homo sapiens, UniProt O43613); experiment: hOX1R FLIPR Ca2+ flux assay; type: cell-based
[1] = CHO cells expressing orexin-1 receptor, agonist 70 pM Ala-6,12 orexin-A, read-out: hOX1R FLIPR IC50

human orexin-2 receptor, sequence (O43614 whole entry): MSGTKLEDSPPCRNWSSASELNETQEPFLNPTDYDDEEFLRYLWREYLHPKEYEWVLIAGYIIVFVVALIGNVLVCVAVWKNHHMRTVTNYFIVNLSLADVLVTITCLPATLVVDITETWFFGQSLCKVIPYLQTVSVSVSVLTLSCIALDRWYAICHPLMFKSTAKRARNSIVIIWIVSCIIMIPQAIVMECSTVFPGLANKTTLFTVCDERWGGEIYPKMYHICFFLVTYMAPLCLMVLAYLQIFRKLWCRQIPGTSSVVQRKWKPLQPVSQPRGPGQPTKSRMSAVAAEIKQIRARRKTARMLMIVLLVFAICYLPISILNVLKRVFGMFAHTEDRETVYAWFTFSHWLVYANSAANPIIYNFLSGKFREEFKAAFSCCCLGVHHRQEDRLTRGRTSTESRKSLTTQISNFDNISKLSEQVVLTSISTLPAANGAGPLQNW

Structure (SMILES) | IC50 (human orexin-2 receptor) [nM] | IC50 (hOX1R; [1]) [nM] | IC50 (hOX1R) [nM]
Cc1oc(C[C@H]2CCCCN2C(=O)c2ccccc2-n2nccn2)nc1C(C)(C)O [Example 1, (R)-(2-(2H-1,2,3-triazol-2-yl)phenyl)(2-((4-(2-hydroxypropan-2-yl)-5-methyloxazol-2-yl)methyl)piperidin-1-yl)methanone] | 14 | 18 | 
CCOc1ncccc1C(=O)N1CCCC[C@@H]1Cc1nc(C(C)(C)O)c(C)o1 [Example 2, (R)-(2-ethoxypyridin-3-yl)(2-((4-(2-hydroxypropan-2-yl)-5-methyloxazol-2-yl)methyl)piperidin-1-yl)methanone] | 20 | 152 | 
Cc1oc(C[C@H]2CCCCN2C(=O)c2ccccc2C2CC2)nc1C(C)(C)O [Example 3, (R)-(2-cyclopropylphenyl)(2-((4-(2-hydroxypropan-2-yl)-5-methyloxazol-2-yl)methyl)piperidin-1-yl)methanone] | 17 |  | 212
Cc1oc(C[C@H]2CCCCN2C(=O)c2ccc(F)cc2-n2nccn2)nc1C(C)(C)O [Example 4, (R)-(4-fluoro-2-(2H-1,2,3-triazol-2-yl)phenyl)(2-((4-(2-hydroxypropan-2-yl)-5-methyloxazol-2-yl)methyl)piperidin-1-yl)methanone] | 25 | 39 | 
Cc1oc(C[C@H]2CCCCN2C(=O)c2cccnc2OCC(F)(F)F)nc1C(C)(C)O [Example 5, (R)-(2-((4-(2-hydroxypropan-2-yl)-5-methyloxazol-2-yl)methyl)piperidin-1-yl)(2-(2,2,2-trifluoroethoxy)pyridin-3-yl)methanone] | 19 | 162 | 
Cc1oc(C[C@H]2CCCCN2C(=O)c2cccnc2OC(C)C)nc1C(C)(C)O [Example 6, (R)-(2-((4-(2-hydroxypropan-2-yl)-5-methyloxazol-2-yl)methyl)piperidin-1-yl)(2-isopropoxypyridin-3-yl)methanone] | 36 | 223 | 
Cc1oc(C[C@H]2CCCCN2C(=O)c2ccccc2N2CCCC2)nc1C(C)(C)O [Example 7, (R)-(2-((4-(2-hydroxypropan-2-yl)-5-methyloxazol-2-yl)methyl)piperidin-1-yl)(2-(pyrrolidin-1-yl)phenyl)methanone] | 51 | 67 | 
CCOc1ccccc1C(=O)N1CCCC[C@@H]1Cc1nc(C(C)(C)O)c(C)o1 [Example 8, (R)-(2-ethoxyphenyl)(2-((4-(2-hydroxypropan-2-yl)-5-methyloxazol-2-yl)methyl)piperidin-1-yl)methanone] | 28 | 256 | 
Cc1oc(C[C@H]2CCCCN2C(=O)c2ccccc2OC(F)(F)F)nc1C(C)(C)O [Example 9, (R)-(2-((4-(2-hydroxypropan-2-yl)-5-methyloxazol-2-yl)methyl)piperidin-1-yl)(2-(trifluoromethoxy)phenyl) methanone] | 109 | 348 | 
Cc1oc(C[C@H]2CCCCN2C(=O)c2ccccc2-n2cccn2)nc1C(C)(C)O [Example 10, (R)-(2-(1H-pyrazol-1-yl)phenyl)(2-((4-(2-hydroxypropan-2-yl)-5-methyloxazol-2-yl)methyl)piperidin-1-yl)methanone] | 51 | 129 | 
Cc1oc(C[C@H]2CCCCN2C(=O)c2cccnc2CC(F)(F)F)nc1C(C)(C)O [Example 11, (R)-(2-((4-(2-hydroxypropan-2-yl)-5-methyloxazol-2-yl)methyl)piperidin-1-yl)(2-(2,2,2-trifluoroethyl)pyridin-3-yl)methanone] |  | > 10000 | 
Cc1oc(C[C@H]2CCCCN2C(=O)c2ccccc2CC(F)F)nc1C(C)(C)O [Example 12, (R)-(2-(2,2-difluoroethyl)phenyl)(2-((4-(2-hydroxypropan-2-yl)-5-methyloxazol-2-yl)methyl)piperidin-1-yl)methanone] | 98 | 2180 | 
Cc1oc(C[C@H]2CCCCN2C(=O)c2cccnc2-n2cccn2)nc1C(C)(C)O [Example 13, (R)-(2-(1H-pyrazol-1-yl)pyridin-3-yl)(2-((4-(2-hydroxypropan-2-yl)-5-methyloxazol-2-yl)methyl)piperidin-1-yl)methanone] | 24 | 51 | 
Cc1oc(C[C@H]2CCCCN2C(=O)c2cccnc2-c2ccccc2)nc1C(C)(C)O [Example 14, (R)-(2-((4-(2-hydroxypropan-2-yl)-5-methyloxazol-2-yl)methyl)piperidin-1-yl)(2-phenylpyridin-3-yl)methanone] | 38 | 80 | 
Cc1oc(C[C@H]2CCCCN2C(=O)c2ccccc2OC(F)F)nc1C(C)(C)O [Example 15, (R)-(2-(difluoromethoxy)phenyl)(2-((4-(2-hydroxypropan-2-yl)-5-methyloxazol-2-yl)methyl)piperidin-1-yl)methanone] | 98 | 1090 | 
Cc1oc(C[C@H]2CCCCN2C(=O)c2cccnc2OCC(F)F)nc1C(C)(C)O [Example 16, (R)-(2-(2,2-difluoroethoxy)pyridin-3-yl)(2-((4-(2-hydroxypropan-2-yl)-5-methyloxazol-2-yl)methyl)piperidin-1-yl)methanone] | 49 | 373 | 
Cc1oc(C[C@H]2CCCCN2C(=O)c2ccccc2OCC(F)(F)F)nc1C(C)(C)O [Example 17, (R)-(2-((4-(2-hydroxypropan-2-yl)-5-methyloxazol-2-yl)methyl)piperidin-1-yl)(2-(2,2,2-trifluoroethoxy)phenyl)methanone] | 99 | 952 | 
Cc1oc(C[C@H]2CCCCN2C(=O)c2ccccc2CC(F)(F)F)nc1C(C)(C)O [Example 18, (R)-(2-((4-(2-hydroxypropan-2-yl)-5-methyloxazol-2-yl)methyl)piperidin-1-yl)(2-(2,2,2-trifluoroethyl)phenyl)-methanone] | 118 | 1690 | 
COc1ccc(C(=O)N2CCCC[C@@H]2Cc2nc(C(C)(C)O)c(C)o2)c(C2CC2)n1 [Example 19, (R)-(2-cyclopropyl-6-methoxypyridin-3-yl)(2-((4-(2-hydroxypropan-2-yl)-5-methyloxazol-2-yl)methyl)piperidin-1-yl)methanone] | 503 | 2310 | 
Cc1oc(C[C@H]2CCCCN2C(=O)c2ccccc2OCC(F)F)nc1C(C)(C)O [Example 20, (R)-(2-(2,2-difluoroethoxy)phenyl)(2-((4-(2-hydroxypropan-2-yl)-5-methyloxazol-2-yl)methyl)piperidin-1-yl)methanone] | 112 | 690 | 
Cc1oc(C[C@H]2CCCCN2C(=O)c2ncccc2-n2nccn2)nc1C(C)(C)O [Example 21, (R)-(3-(2H-1,2,3-triazol-2-yl)pyridin-2-yl)(2-((4-(2-hydroxypropan-2-yl)-5-methyloxazol-2-yl)methyl)piperidin-1-yl)methanone] | 225 | 1850 | 
Cc1oc(C[C@H]2CCCCN2C(=O)c2nccnc2-c2ccccn2)nc1C(C)(C)O [Example 22, (R)-(2-((4-(2-hydroxypropan-2-yl)-5-methyloxazol-2-yl)methyl)piperidin-1-yl)(3-(pyridin-2-yl)pyrazin-2-yl)methanone] | 558 | 2930 | 
Cc1oc(C[C@H]2CCCCN2C(=O)c2nccnc2N2CCCC2)nc1C(C)(C)O [Example 23, (R)-(2-((4-(2-hydroxypropan-2-yl)-5-methyloxazol-2-yl)methyl)piperidin-1-yl)(3-(pyrrolidin-1-yl)pyrazin-2-yl)methanone] | > 10000 | > 10000 | 
